# Activity calls are given as the source filed them. No cut-off for these calls is given here.
# Tests used:
# [1] = target: Androgen receptor (Homo sapiens) (UniProt P10275); experiment: In vivo induction of androgen receptor in human LNCaP/AR cells xenografted in SCID mouse assessed as reduction in AR protein level at 10 mg/kg, po administered once daily for 28 days by ELISA; conditions: time 28.0 day
# [2] = tested on: Androgen receptor (Homo sapiens), P10275 [F877L]; experiment: Antagonist activity at androgen receptor F876L mutant expressed in HEK293 cells assessed as reduction in DHT-induced transcriptional activation of androgen receptor incubated for 24 hrs by Steady-Glo assay relative to control; assay type: cell-based; set-up: scale not given: the % may be the effect or the level left; conditions: filed as antagonist
# Androgen receptor = target: T1, Androgen receptor (Homo sapiens, UniProt P10275); experiment: Induction of androgen receptor degradation in human LNCaP cells incubated for 24 hrs by ELISA; assay type: cell-based
# T1 sequence (P10275 whole entry): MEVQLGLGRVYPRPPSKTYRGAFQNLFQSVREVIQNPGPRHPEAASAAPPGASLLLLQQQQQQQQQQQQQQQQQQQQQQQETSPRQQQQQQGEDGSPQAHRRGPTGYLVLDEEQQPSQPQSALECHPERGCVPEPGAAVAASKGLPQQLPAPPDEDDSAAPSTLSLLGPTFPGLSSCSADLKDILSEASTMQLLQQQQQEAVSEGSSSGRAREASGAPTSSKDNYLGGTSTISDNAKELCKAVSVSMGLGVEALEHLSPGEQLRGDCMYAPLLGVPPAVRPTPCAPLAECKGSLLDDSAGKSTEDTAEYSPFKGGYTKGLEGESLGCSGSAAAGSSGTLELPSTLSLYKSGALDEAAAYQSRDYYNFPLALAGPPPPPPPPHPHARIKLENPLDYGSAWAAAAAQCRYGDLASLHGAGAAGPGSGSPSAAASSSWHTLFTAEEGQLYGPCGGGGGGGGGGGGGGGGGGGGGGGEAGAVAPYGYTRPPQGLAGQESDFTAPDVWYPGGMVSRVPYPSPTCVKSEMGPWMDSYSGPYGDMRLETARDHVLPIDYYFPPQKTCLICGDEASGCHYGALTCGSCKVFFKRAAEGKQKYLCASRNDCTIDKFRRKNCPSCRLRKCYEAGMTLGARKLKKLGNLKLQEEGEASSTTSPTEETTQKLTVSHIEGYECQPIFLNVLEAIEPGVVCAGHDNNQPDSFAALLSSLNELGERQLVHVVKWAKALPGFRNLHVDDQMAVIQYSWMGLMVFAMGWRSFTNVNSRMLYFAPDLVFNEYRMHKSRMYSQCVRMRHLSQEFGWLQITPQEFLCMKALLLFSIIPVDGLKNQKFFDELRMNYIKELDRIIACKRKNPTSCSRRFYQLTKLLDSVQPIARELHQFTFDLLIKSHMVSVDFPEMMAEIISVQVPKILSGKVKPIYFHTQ
# [3] = Cmax in Sprague-Dawley rat at 10 mg/kg, po measured upto 24 hrs by LC-MS/MS analysis; assay type: ADME, organism-based; set-up: dose 10 mg/kg, time < 24 hrs, route po; conditions: in vivo
# [4] = Antitumor activity against human LNCaP/AR cells xenografted in SCID male mouse assessed as tumor growth inhibition at 10 mg/kg, po administered once daily for 28 days and measured every 3 days; assay type: functional; conditions: Homo sapiens, LNCaP/AR, 672 h, time 28 day, read-out: TGI
# [5] = target: T2, Androgen receptor (Homo sapiens) (UniProt P10275); experiment: Potency index, ratio of galeterone DC50 to test compound DC50 for induction of androgen receptor degradation in human LNCaP cells; assay type: cell-based
# T2 sequence (whole entry): T1 sequence (P10275 whole entry)
# LNCaP = experiment: Antiproliferative activity against human LNCaP cells incubated for 6 days by CellTiter-Glo assay; assay type: functional, cell-based
# [6] = Tmax in Sprague-Dawley rat at 10 mg/kg, po measured upto 24 hrs by LC-MS/MS analysis; assay type: ADME, organism-based; conditions: in vivo
# [7] = target: Voltage-gated inwardly rectifying potassium channel KCNH2 (Homo sapiens, UniProt Q12809); experiment: Inhibition of human ERG by patch clamp assay; assay type: toxicity
# [8] = Effect on androgen sensitive organs in testosterone propionate stimulated castrated male Sprague-Dawley rat assessed as seminal vesicles weight loss at 20 mg/kg, po administered once daily for 10 days and measured 24 hrs post last dose; assay type: functional; conditions: time 11 day
# [9] = Half life in Sprague-Dawley rat at 10 mg/kg, po measured upto 24 hrs by LC-MS/MS analysis; assay type: ADME, organism-based; conditions: in vivo
# [10] = target: T3, Steroid 17-alpha-hydroxylase/17,20 lyase (Homo sapiens, UniProt P05093); experiment: Inhibition of recombinant human CYP17A1 using progesterone as substrate incubated for 5 mins in presence of NADPH by LC-MS/MS analysis; assay type: ADME
# T3 sequence (P05093 whole entry): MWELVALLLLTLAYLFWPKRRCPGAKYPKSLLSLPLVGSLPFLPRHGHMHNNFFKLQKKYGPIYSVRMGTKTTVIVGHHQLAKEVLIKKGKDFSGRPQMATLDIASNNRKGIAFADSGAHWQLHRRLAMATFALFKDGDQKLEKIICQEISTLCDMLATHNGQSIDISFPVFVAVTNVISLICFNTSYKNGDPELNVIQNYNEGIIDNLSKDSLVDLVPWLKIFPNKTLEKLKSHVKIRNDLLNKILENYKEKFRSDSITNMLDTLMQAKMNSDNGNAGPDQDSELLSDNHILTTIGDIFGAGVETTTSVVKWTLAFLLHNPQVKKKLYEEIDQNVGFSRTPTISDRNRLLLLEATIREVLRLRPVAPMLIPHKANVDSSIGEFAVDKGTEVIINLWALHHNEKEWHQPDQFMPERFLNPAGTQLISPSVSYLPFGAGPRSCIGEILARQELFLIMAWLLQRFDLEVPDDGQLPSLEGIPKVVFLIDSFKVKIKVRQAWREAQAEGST
# [11] = Effect on androgen sensitive organs in testosterone propionate stimulated castrated male Sprague-Dawley rat assessed as ventral prostate weight loss at 20 mg/kg, po administered once daily for 10 days and measured 24 hrs post last dose; assay type: functional; conditions: time 11 day
# [12] = AUC(0 to t) in Sprague-Dawley rat at 10 mg/kg, po measured upto 24 hrs by LC-MS/MS analysis; assay type: ADME, organism-based; conditions: in vivo
# [13] = Toxicity in SCID male mouse xenografted with human LNCaP/AR cells assessed as animal weight loss at 10 mg/kg, po administered once daily for 28 days and measured every 3 days; assay type: organism-based; conditions: in vivo, 672 h, time 28 day
# Mus musculus = experiment: In vivo induction of androgen receptor in human LNCaP/AR cells xenografted in SCID mouse assessed as reduction in PSA level at 10 mg/kg, po administered once daily for 28 days by ELISA; assay type: functional, organism-based; conditions: time 28.0 day
# [14] = Toxicity in SCID male mouse xenografted with human LNCaP/AR cells assessed as tolerability at 10 mg/kg, po administered once daily for 28 days and measured every 3 days; assay type: organism-based; conditions: in vivo, 672 h, time 28 day
# [15] = Toxicity in SCID male mouse xenografted with human LNCaP/AR cells assessed as tolerability at 10 to 30 mg/kg, po administered once daily for 28 days and measured every 3 days; assay type: organism-based; conditions: in vivo, 672 h, dose 10-30 mg/kg, time 28 day
# Cytochrome P450 2C9 = Cytochrome P450 2C9 (Homo sapiens, UniProt P11712); experiment: Inhibition of CYP2C9 (unknown origin); assay type: ADME
# Cytochrome P450 3A4 [16] = target: T4, Cytochrome P450 3A4 (Homo sapiens, UniProt P08684); experiment: Inhibition of CYP3A4 (unknown origin) using midazolam substrate; assay type: ADME
# Cytochrome P450 2C19 = Cytochrome P450 2C19 (Homo sapiens, UniProt P33261); experiment: Inhibition of CYP2C19 (unknown origin); assay type: ADME
# [17] = Genotoxicity in CHL cells in absence of rat liver S9 fraction by micronucleus test; assay type: toxicity, cell-based, Cricetulus griseus; conditions: chinese hamster
# [18] = Mutagenicity in Salmonella typhimurium TA1537 in absence of liver S9 fraction by AMES test; assay type: toxicity; conditions: salmonella enterica subsp. enterica serovar typhimurium
# [19] = Mutagenicity in Salmonella typhimurium TA1537 in presence of liver S9 fraction by AMES test; assay type: toxicity, subcellular; conditions: salmonella enterica subsp. enterica serovar typhimurium
# [20] = Mutagenicity in Salmonella typhimurium TA98 in absence of liver S9 fraction by AMES test; assay type: toxicity; conditions: salmonella enterica subsp. enterica serovar typhimurium
# [21] = Toxicity in BALB/c mouse xenografted with enzalutamide resistant human LNCaP C4-2B cells assessed as body weight loss at 10 to 30 mg/kg, po administered once daily for 28 days and measured every 3 days; assay type: organism-based; conditions: in vivo, 672 h, dose 10-30 mg/kg, time 28 day
# Glucocorticoid receptor = Glucocorticoid receptor (Homo sapiens, UniProt P04150); experiment: Antagonist activity at GR (unknown origin)
# [22] = Toxicity in SCID male mouse xenografted with human LNCaP/AR cells assessed as animal weight loss at 10 to 30 mg/kg, po administered once daily for 28 days and measured every 3 days; assay type: organism-based; conditions: in vivo, 672 h, dose 10-30 mg/kg, time 28 day
# Cytochrome P450 1A2 = Cytochrome P450 1A2 (Homo sapiens, UniProt P05177); experiment: Inhibition of CYP1A2 (unknown origin); assay type: ADME
# [23] = Mutagenicity in Salmonella typhimurium TA100 in absence of liver S9 fraction by AMES test; assay type: toxicity; conditions: salmonella enterica subsp. enterica serovar typhimurium
# [24] = Mutagenicity in Salmonella typhimurium TA1535 in presence of liver S9 fraction by AMES test; assay type: toxicity, subcellular; conditions: salmonella enterica subsp. enterica serovar typhimurium
# Progesterone receptor = Progesterone receptor (Homo sapiens, UniProt P06401); experiment: Antagonist activity at PR (unknown origin)
# Cytochrome P450 2D6 = Cytochrome P450 2D6 (Homo sapiens, UniProt P10635); experiment: Inhibition of CYP2D6 (unknown origin); assay type: ADME
# [25] = Genotoxicity in CHL cells in presence of rat liver S9 fraction by micronucleus test; assay type: toxicity, Cricetulus griseus; conditions: chinese hamster
# [26] = Mutagenicity in Salmonella typhimurium TA1535 in absence of liver S9 fraction by AMES test; assay type: toxicity; conditions: salmonella enterica subsp. enterica serovar typhimurium
# [27] = Mutagenicity in Escherichia coli WP2 uvrA in presence of liver S9 fraction by AMES test; assay type: toxicity, subcellular
# [28] = Mutagenicity in Escherichia coli WP2 uvrA in absence of liver S9 fraction by AMES test; assay type: toxicity
# [29] = tested on: GABA-A receptor; anion channel; experiment: Antagonist activity at GABA-A (unknown origin) at 40 uM relative to control; assay type: toxicity; conditions: human
# [30] = Mutagenicity in Salmonella typhimurium TA100 in presence of liver S9 fraction by AMES test; assay type: toxicity, subcellular; conditions: salmonella enterica subsp. enterica serovar typhimurium
# [31] = Mutagenicity in Salmonella typhimurium TA98 in presence of liver S9 fraction by AMES test; assay type: toxicity, subcellular; conditions: salmonella enterica subsp. enterica serovar typhimurium
# Cytochrome P450 3A4 [32] = target: T4, Cytochrome P450 3A4; experiment: Inhibition of CYP3A4 (unknown origin) using testosterone as substrate; assay type: ADME
# Estrogen receptor = Estrogen receptor (Homo sapiens, UniProt P03372); experiment: Antagonist activity at ERalpha (unknown origin)
# Chain of Estrogen receptor (P03372 whole entry): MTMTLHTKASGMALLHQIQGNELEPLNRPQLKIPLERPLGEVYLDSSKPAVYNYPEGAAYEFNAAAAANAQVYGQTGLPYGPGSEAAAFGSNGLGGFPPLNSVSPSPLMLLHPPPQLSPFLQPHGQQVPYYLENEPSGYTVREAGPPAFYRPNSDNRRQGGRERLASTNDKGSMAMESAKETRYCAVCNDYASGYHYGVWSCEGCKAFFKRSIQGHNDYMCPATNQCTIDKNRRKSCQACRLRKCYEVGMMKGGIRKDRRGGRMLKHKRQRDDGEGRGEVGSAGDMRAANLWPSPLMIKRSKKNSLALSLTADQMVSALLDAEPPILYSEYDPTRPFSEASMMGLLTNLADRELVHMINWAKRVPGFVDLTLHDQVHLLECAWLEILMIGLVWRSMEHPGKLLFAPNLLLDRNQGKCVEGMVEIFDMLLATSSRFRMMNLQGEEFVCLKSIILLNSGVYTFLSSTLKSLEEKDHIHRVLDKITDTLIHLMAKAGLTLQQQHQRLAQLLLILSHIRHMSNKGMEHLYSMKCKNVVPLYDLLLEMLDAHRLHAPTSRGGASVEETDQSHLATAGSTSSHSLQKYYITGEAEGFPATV
# T4 sequence (P08684 whole entry): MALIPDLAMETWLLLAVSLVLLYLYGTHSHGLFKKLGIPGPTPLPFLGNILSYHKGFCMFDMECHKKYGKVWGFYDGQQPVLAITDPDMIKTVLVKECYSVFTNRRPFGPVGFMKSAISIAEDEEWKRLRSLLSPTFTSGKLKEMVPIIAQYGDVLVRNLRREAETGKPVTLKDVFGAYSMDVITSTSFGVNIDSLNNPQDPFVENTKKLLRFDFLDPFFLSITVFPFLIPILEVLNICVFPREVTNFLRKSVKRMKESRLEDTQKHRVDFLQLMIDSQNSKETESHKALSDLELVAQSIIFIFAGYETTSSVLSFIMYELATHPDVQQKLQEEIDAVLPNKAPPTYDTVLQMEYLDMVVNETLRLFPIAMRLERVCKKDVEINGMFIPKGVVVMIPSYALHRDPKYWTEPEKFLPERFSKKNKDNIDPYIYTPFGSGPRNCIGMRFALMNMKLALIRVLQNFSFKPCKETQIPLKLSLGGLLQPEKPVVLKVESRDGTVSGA
# Chain of Voltage-gated inwardly rectifying potassium channel KCNH2 (Q12809 whole entry): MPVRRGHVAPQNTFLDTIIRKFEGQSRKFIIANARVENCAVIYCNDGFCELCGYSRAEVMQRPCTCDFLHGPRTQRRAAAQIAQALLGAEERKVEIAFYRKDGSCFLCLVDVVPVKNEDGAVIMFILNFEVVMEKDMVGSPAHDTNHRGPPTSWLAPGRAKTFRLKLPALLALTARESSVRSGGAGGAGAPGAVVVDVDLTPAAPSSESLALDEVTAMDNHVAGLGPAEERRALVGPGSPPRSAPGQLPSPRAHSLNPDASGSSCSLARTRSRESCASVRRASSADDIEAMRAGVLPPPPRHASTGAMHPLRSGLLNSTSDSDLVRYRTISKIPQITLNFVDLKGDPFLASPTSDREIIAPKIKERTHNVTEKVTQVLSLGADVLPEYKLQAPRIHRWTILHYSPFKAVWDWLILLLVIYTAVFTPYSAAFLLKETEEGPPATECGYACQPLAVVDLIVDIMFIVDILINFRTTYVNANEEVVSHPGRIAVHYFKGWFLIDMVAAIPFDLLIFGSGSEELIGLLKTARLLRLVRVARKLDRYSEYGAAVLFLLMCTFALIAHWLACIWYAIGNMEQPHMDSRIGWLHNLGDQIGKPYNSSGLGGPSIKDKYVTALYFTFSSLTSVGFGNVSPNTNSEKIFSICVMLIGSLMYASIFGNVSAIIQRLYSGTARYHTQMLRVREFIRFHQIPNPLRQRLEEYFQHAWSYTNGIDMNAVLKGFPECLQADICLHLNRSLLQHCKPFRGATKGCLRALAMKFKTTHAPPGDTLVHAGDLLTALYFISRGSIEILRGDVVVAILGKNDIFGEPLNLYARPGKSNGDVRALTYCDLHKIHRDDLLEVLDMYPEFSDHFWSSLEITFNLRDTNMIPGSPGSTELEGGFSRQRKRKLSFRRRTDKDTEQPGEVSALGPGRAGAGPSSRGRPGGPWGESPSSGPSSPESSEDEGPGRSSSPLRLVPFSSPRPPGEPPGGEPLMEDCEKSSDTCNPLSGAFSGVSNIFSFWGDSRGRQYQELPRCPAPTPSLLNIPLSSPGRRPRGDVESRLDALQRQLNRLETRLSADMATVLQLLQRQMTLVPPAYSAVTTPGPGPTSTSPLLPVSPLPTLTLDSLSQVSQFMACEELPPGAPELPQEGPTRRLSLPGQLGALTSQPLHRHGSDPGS
# Chain of Cytochrome P450 1A2 (P05177 whole entry): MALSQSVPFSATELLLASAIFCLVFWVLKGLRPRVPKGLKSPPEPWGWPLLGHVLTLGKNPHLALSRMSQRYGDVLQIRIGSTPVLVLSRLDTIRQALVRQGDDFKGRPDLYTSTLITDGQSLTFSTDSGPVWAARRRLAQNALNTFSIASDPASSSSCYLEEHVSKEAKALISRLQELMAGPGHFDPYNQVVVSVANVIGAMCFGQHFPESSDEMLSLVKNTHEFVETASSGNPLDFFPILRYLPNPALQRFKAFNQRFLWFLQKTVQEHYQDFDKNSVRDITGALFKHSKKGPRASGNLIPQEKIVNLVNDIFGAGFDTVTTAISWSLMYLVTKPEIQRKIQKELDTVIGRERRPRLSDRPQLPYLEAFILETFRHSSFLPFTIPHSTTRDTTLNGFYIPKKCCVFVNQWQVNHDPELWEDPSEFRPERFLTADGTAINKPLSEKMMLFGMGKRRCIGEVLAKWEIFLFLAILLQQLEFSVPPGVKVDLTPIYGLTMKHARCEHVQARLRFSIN
# Chain of Glucocorticoid receptor (P04150 whole entry): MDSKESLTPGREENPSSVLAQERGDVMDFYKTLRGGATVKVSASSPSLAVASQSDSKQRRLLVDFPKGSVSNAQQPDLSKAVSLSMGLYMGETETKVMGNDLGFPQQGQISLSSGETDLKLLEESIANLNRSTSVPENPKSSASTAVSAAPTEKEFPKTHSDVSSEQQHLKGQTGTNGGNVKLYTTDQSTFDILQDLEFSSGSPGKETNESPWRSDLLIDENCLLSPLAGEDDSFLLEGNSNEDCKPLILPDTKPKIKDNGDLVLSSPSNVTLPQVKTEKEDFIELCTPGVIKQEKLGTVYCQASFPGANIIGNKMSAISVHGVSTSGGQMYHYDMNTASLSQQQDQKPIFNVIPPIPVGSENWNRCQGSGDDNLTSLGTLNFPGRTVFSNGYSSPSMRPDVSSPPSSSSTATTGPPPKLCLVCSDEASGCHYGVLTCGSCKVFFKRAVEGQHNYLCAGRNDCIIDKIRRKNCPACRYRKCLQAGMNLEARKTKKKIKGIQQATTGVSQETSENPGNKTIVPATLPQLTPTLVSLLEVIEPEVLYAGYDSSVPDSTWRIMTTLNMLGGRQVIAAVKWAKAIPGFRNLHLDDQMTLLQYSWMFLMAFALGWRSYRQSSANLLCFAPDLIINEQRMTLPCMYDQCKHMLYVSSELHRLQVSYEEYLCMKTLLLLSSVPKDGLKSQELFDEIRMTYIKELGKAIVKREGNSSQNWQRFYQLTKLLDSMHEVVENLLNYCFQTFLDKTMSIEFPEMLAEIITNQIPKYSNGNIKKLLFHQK
# Chain of Progesterone receptor (P06401 whole entry): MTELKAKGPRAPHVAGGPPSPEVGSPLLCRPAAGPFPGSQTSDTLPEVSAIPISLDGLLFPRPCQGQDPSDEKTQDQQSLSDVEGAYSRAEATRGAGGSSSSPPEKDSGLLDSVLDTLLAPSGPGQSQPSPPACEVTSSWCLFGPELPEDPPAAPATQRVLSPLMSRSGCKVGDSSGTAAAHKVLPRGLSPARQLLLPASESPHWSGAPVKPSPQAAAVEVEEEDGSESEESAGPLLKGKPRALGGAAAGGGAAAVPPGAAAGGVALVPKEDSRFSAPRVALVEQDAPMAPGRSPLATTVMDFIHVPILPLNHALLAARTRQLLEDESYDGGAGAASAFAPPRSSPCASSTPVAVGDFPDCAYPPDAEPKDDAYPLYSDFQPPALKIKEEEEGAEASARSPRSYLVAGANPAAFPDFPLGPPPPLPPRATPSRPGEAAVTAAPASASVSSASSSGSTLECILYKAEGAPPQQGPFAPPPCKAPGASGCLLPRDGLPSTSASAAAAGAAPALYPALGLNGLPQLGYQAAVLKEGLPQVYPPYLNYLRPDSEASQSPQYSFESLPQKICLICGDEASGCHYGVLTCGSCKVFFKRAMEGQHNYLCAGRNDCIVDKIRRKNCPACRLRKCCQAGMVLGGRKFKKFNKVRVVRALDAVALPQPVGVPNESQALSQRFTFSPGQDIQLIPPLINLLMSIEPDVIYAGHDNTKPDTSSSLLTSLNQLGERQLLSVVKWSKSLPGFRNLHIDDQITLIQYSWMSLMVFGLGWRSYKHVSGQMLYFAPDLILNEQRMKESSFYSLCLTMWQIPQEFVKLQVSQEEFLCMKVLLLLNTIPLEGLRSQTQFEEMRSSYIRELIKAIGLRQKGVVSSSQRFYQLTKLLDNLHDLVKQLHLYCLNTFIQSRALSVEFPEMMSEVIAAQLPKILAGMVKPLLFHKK
# Chain of Cytochrome P450 2C9 (P11712 whole entry): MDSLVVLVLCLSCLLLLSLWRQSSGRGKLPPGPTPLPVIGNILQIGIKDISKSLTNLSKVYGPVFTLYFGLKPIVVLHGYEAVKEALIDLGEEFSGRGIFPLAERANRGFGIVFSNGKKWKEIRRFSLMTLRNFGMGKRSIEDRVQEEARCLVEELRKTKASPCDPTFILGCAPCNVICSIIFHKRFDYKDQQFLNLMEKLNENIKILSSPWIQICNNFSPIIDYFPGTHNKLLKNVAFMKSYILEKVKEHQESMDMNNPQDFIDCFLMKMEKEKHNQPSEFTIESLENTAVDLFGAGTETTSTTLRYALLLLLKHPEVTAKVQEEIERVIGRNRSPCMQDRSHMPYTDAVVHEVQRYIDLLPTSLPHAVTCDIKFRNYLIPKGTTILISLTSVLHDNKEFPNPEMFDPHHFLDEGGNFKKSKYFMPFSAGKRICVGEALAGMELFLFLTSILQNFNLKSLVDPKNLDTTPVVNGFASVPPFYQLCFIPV
compound,measurement,setting,value
Cc1cn(C2=CCC3C4CC=C5C[C@@H](NC(=O)c6ccc(F)cc6F)CC[C@]5(C)C4CC[C@]23C)cn1 (stereo partly drawn),Activity,[1],inactive
same,Activity,[2],41.6%
same,EC50,Androgen receptor,1680 nM
same,Cmax,[3],1520 ng/mL
same,inhibition in vivo at 10 mg/kg,[4],50%
same,Ratio,[5],8.6
same,IC50,LNCaP,327 nM
same,Tmax,[6],6 h
same,IC50,[7],> 40000 nM
same,Activity,[8],-65%
same,half-life,[9],6.02 h
same,IC50,[10],127 nM
same,Activity,[11],-65%
same,AUCt,[12],22542 h/ng/mL
same,Activity,[13],Non-Toxic
same,Activity,Mus musculus,Active
same,Activity,[14],Non-Toxic
Cc1cn(C2=CCC3C4CC=C5C[C@@H](NC(=O)c6ccc(F)cc6)CC[C@]5(C)C4CC[C@]23C)cn1 (stereo partly drawn),Activity,[15],Non-Toxic
same,IC50,Cytochrome P450 2C9,30800 nM
same,IC50,Cytochrome P450 3A4 [16],1250 nM
same,IC50,Cytochrome P450 2C19,4100 nM
same,Activity,[17],Non-Toxic
same,Activity,[18],Non-Toxic
same,Activity,[19],Non-Toxic
same,Activity,[20],Non-Toxic
same,Activity,[21],Non-Toxic
same,EC50,Androgen receptor,1280 nM
same,Cmax,[3],6430 ng/mL
same,inhibition in vivo at 10 mg/kg,[4],56%
same,IC50,Glucocorticoid receptor,> 30000 nM
same,IC50,LNCaP,473 nM
same,Tmax,[6],4 h
same,Activity,[22],Non-Toxic
same,IC50,Cytochrome P450 1A2,25000 nM
same,IC50,[7],> 40000 nM
same,Activity,[23],Non-Toxic
same,Activity,[8],-64%
same,Activity,[24],Non-Toxic
same,half-life,[9],3.28 h
same,IC50,Progesterone receptor,> 30000 nM
same,IC50,Cytochrome P450 2D6,50000 nM
same,IC50,[10],100 nM
same,Activity,[25],Non-Toxic
same,Activity,[26],Non-Toxic
same,Activity,[27],Non-Toxic
same,Activity,[28],Non-Toxic
same,Activity,[11],-65%
same,AUCt,[12],68872 h/ng/mL
same,inhibition (INH),[29],Not Active
same,Activity,[30],Non-Toxic
same,Activity,[31],Non-Toxic
same,IC50,Cytochrome P450 3A4 [32],810 nM
same,IC50,Estrogen receptor,103 nM
